The IC50 is the concentration at which inhibition is half-maximal.

In the experiment the target is E. coli topoisomerase I (Escherichia coli, UniProt P06612). Kind of experiment: Bacterial topoisomerase I relaxation activity inhibition assay (EcTopI). The format is biochemical. The following applies: Table 1; individual compounds tested as crude material; read-out: EcTopI relaxation inhibition (IC50). Here is the method: The relaxation activity of bacterial topoisomerase I was assayed in a buffer containing 10 mM Tris-HCl, pH 8.0, 50 mM NaCl, 0.1 mg/mL gelatin, and 0.5 mM MgCl2. One microliter of the compounds dissolved in DMF (dimethylformamide) or solvent alone was mixed with 10 μl of the reaction buffer containing 10 ng of enzyme before the addition of 9 μl of reaction buffer containing 160 ng of supercoiled pBAD/Thio plasmid DNA purified by cesium chloride gradient as substrate. Following incubation at 37° C. for 30 min, the reactions were terminated by the addition of 4 μl of 50% glycerol, 50 mM EDTA, and 0.5% (v/v) bromophenol blue, and analyzed by agarose gel electrophoresis. The gels were stained in ethidium bromide and photographed under UV light.
E. coli topoisomerase I, sequence (P06612 whole entry): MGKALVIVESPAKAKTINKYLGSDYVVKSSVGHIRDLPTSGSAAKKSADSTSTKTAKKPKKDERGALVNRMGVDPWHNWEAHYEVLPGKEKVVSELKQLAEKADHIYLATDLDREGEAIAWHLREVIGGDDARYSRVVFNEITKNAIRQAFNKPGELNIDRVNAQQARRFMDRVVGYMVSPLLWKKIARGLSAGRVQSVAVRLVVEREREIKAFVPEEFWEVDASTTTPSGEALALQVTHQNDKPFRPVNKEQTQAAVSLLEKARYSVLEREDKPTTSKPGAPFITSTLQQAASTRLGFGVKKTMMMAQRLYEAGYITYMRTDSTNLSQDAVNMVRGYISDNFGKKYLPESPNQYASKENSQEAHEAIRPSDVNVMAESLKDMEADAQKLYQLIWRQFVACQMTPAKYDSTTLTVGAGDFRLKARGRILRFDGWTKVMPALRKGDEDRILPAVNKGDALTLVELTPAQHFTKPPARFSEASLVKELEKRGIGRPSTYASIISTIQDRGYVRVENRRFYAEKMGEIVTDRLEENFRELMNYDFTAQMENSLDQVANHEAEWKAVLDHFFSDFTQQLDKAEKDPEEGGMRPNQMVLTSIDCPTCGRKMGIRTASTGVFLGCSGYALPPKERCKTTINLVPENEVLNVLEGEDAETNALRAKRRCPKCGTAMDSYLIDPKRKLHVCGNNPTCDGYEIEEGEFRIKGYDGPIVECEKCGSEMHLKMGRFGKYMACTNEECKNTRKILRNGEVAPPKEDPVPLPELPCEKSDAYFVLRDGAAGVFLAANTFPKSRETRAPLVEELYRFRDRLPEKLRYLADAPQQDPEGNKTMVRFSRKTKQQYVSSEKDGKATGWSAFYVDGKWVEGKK
Regarding `CCCC[C@H](CN[C@@H](CN)CC1CCCCC1)NCCCCCC1CCCCC1` [Compound 2471-63], the concentration for half-maximal inhibition (IC50) was 160 µM.
For the compound `CCCC[C@@H](CN[C@@H](CN)CCCCNC)NCCCc1cccc(Br)c1` [Compound 2471-34], the IC50 was 160 µM.
Then `CCCC[C@H](CN[C@H](CN)CC1CCCCC1)NCC1CCC(C(C)(C)C)CC1` (some centres unmarked) [Compound 2471-50], with 160 µM; and `CCCC[C@H](CN[C@@H](CN)CC1CCCCC1)NCC1CCC(C(C)(C)C)CC1` (some centres unmarked) [Compound 2471-62], with 160 µM.
As for `CCC[C@H](CN[C@@H](CN)CCCCNC)NCCCc1ccc(O)c(O)c1` [Compound 2471-32], the IC50 is more than 160 µM.
In the case of `CNCCC[C@H](CN[C@H](CN)CC1CCCCC1)NCCCc1cc(C(F)(F)F)cc(C(F)(F)F)c1` [Compound 2471-55], the half-maximal inhibitory concentration (IC50) turned out to be 160 µM.
As for `CCC[C@H](CN[C@H](CN)CCCCNC)NCCCc1cccc(Br)c1` [Compound 2471-7], the figure is 160 µM; as for `CNCCC[C@@H](CN[C@H](CN)CC1CCCCC1)NCCCc1cc(C(F)(F)F)cc(C(F)(F)F)c1` [Compound 2471-52], 160 µM.
On to `CCC[C@H](CN[C@H](CN)CCCCNC)NCCCc1ccc(O)c(O)c1` [Compound 2471-8], for which the half-inhibitory concentration (IC50) is more than 160 µM.
On to `CNCCCC[C@@H](CN)NC[C@H](CCCNC(=N)N)NCCCc1cccc(Br)c1` [Compound 2471-4], for which the IC50 was determined as 160 µM.
Consider `CNCCCC[C@@H](CN[C@H](CN)CCCN)NCCCc1ccc(O)c(O)c1` [Compound 2471-14], for which the IC50 is more than 160 µM.
As for `CCCC[C@@H](CN[C@H](CN)CCCN)NCCCc1cccc(Br)c1` [Compound 2471-22], the IC50 amounted to 160 µM.
Take `CCC[C@H](CN[C@H](CN)CCCN)NCCCc1ccc(O)c(O)c1` [Compound 2471-20]: the IC50 was more than 160 µM.
`CNCCC[C@H](CN[C@H](CN)CC1CCCCC1)NCC1CCC(C(C)(C)C)CC1` (some centres unmarked) [Compound 2471-56]: the IC50 was determined as 160 µM.
For `CCCC[C@@H](CN[C@H](CN)CCCCNC)NCCCc1cccc(Br)c1` [Compound 2471-10], the IC50 turned out to be 160 µM.
Then `CCCC[C@@H](CN[C@H](CN)CCCN)NCCCc1ccc(O)c(O)c1` [Compound 2471-23], with more than 160 µM; and `CNCCCC[C@H](CN)NC[C@H](CCCNC(=N)N)NCCCc1ccc(O)c(O)c1` [Compound 2471-29], with 120 µM; and `CNCCCC[C@H](CN)NC[C@H](CCCCNC)NCCCc1cccc(Br)c1` [Compound 2471-25], with 160 µM.
As for `CCC[C@H](CN[C@@H](CN)CCCCNC)NCCCc1cccc(Br)c1` [Compound 2471-31], the figure is 160 µM; as for `CNCCC[C@H](CN[C@H](CN)CC1CCCCC1)NCCCCCC1CCCCC1` [Compound 2471-57], 160 µM.
For the compound `CNCCC[C@@H](CN[C@H](CN)CC1CCCCC1)NCC1CCC(C(C)(C)C)CC1` (some centres unmarked) [Compound 2471-53], the IC50 was more than 160 µM.
In the case of `N=C(N)NCCC[C@@H](CN[C@H](CN)CCCN)NCCCc1ccc(O)c(O)c1` [Compound 2471-17], the IC50 was more than 160 µM.
As for `CCCC[C@@H](CN[C@@H](CN)CCCCNC)NCCCc1ccc(O)c(O)c1` [Compound 2471-35], the figure is more than 160 µM.
As to `CNCCC[C@@H](CN[C@@H](CN)CC1CCCCC1)NCCCCCC1CCCCC1` [Compound 2471-66], the IC50 was found to be 160 µM.
Then `CNCCCC[C@@H](CN)NC[C@H](CCCCNC)NCCCc1cccc(Br)c1` [Compound 2471-1], with 160 µM.
Consider `CC(C)(C)C1CCC(CN[C@H](CN[C@@H](CN)CC2CCCCC2)Cc2ccc(F)cc2)CC1` (some centres unmarked) [Compound 2471-71], for which the 50% inhibitory concentration (IC50) came to 40 µM.
As to `CNCCC[C@@H](CN[C@H](CN)CC1CCCCC1)NCCCCCC1CCCCC1` [Compound 2471-54], the IC50 is more than 160 µM.
As for `CNCCCC[C@@H](CN)NC[C@H](CCCNC(=N)N)NCCCc1ccc(O)c(O)c1` [Compound 2471-5], the IC50 was more than 160 µM.
Turning to `CNCCC[C@@H](CN[C@@H](CN)CC1CCCCC1)NCC1CCC(C(C)(C)C)CC1` (some centres unmarked) [Compound 2471-65], the IC50 was 160 µM.

These data come from patent US9988341B2, “Bacterial topoisomerase inhibitors and use thereof” (THE FLORIDA INTERNATIONAL UNIVERSITY BOARD OF TRUSTEES, priority 2016, dated 2018).
